Test results from ChEMBL document CHEMBL1138896, “2,3,7-Trisubstituted pyrazolo[1,5-d][1,2,4]triazines: functionally selective GABAA alpha3-subtype agonists” (Bioorg Med Chem Lett, 2006).

Key:
[1] = biological target: GABA-A receptor; alpha-1/beta-3/gamma-2 (Homo sapiens) (UniProt P14867+P18507+P28472); assay: Efficacy against human recombinant GABA-Aalpha1 plus beta-3-gamma-2 receptor expressed in L(tk-) cells assessed as modulation of chloride ion by whole cell patch clamp method relative to chlorodiazepoxide; assay type: functional, cell-based
[2] = biological target: T1, GABA-A receptor; alpha-3/beta-3/gamma-2 (Homo sapiens, UniProt P18507+P28472+P34903); assay: Inhibition of [3H]Ro15-1788 binding to human recombinant GABA-Aalpha3 plus beta-3-gamma-2 receptor expressed in L(tk-) cells; assay type: cell-based
T1 sequence (P18507 whole entry): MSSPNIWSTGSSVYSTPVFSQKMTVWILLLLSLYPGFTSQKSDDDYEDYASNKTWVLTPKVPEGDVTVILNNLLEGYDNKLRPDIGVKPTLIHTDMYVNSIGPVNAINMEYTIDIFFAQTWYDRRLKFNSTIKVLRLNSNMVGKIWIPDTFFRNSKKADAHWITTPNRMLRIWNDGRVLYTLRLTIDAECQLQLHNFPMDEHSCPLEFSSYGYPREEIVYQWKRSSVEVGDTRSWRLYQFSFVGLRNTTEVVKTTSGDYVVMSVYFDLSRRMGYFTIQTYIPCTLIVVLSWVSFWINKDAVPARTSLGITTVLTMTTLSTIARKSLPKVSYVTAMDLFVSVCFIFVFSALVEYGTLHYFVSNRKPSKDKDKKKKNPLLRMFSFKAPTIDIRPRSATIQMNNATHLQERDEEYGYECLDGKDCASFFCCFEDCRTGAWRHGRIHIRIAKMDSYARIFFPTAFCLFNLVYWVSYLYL
T1 sequence (P28472 whole entry): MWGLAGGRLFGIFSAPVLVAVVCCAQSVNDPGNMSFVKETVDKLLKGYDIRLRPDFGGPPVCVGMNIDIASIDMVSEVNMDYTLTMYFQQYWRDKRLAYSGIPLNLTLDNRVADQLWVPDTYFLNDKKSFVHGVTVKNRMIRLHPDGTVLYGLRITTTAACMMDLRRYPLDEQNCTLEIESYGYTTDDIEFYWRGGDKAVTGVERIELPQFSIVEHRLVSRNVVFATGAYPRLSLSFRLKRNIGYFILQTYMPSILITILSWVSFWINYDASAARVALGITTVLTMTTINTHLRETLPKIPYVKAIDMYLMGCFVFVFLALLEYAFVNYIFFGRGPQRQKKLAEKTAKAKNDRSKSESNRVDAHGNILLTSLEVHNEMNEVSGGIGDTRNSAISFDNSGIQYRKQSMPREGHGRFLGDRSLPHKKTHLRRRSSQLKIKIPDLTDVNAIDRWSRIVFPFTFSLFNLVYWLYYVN
T1 sequence (P34903 whole entry): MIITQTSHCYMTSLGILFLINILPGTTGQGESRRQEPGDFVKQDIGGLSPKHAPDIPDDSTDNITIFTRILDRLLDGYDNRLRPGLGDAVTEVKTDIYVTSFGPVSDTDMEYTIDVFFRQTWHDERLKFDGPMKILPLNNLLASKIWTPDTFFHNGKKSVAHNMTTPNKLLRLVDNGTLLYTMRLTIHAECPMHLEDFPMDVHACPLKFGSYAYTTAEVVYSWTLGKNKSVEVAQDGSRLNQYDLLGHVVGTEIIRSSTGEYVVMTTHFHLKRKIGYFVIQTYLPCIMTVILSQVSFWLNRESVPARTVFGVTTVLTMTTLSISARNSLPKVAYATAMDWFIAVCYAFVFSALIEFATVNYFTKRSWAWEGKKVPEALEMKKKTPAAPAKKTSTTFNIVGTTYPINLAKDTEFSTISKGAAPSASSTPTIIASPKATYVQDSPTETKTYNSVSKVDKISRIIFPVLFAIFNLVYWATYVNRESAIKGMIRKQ

[3] = biological target: GABA-A receptor; alpha-3/beta-3/gamma-2 (Homo sapiens) (UniProt P18507+P28472+P34903); assay: Efficacy against human recombinant GABA-Aalpha3 plus beta-3-gamma-2 receptor expressed in L(tk-) cells assessed as modulation of chloride ion by whole cell patch clamp method relative to chlorodiazepoxide; assay type: functional, cell-based
[4] = tested on: Rattus norvegicus; assay: Receptor occupancy in rat, po; assay type: functional
[5] = Oral bioavailability in rat; assay type: ADME, organism-based; settings: in vivo
[6] = biological target: T2, GABA-A receptor; alpha-1/beta-3/gamma-2 (Homo sapiens, UniProt P14867+P18507+P28472); assay: Inhibition of [3H]Ro15-1788 binding to human recombinant GABA-Aalpha1 plus beta-3-gamma-2 receptor expressed in L(tk-) cells; assay type: cell-based
T2 sequence (P14867 whole entry): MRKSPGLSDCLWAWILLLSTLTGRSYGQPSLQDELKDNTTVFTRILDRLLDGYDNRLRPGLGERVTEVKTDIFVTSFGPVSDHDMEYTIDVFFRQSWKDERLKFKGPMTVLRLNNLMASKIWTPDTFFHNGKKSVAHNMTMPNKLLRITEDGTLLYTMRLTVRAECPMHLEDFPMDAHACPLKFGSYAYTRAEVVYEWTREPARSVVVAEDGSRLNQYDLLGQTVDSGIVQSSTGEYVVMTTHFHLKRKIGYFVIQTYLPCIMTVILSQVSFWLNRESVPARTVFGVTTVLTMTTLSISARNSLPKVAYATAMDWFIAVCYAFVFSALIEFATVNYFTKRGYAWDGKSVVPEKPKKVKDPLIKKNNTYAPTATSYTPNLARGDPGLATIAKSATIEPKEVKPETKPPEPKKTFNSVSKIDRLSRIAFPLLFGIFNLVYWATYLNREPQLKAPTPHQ
T2 sequence (P18507 whole entry): T1 sequence (P18507 whole entry)
T2 sequence (P28472 whole entry): T1 sequence (P28472 whole entry)

SMILES: Cn1ncnc1COc1nn2c(-c3c(F)cccc3F)nncc2c1-c1ccccc1F
- Efficacy [1]: 0.29
- Ki [2]: 0.52 nM
- Efficacy [3]: 0.55

SMILES: Cn1ncnc1COc1nn2c(-c3ccccc3F)nncc2c1-c1cccc(F)c1F
- Efficacy [1]: 0.27
- Ki [2]: 1.5 nM
- Efficacy [3]: 0.4

SMILES: Cn1ncnc1COc1nn2c(-c3cccs3)nncc2c1-c1ccccc1
- Efficacy [1]: -0.03
- Ki [2]: 1.6 nM
- Efficacy [3]: 0.19

SMILES: Cn1ncnc1COc1nn2c(-c3ccccc3F)nncc2c1-c1ccccc1Cl
- Efficacy [1]: 0.32
- Ki [2]: 8.7 nM
- Efficacy [3]: 0.32

SMILES: Cn1ncnc1COc1nn2c(-[n+]3ccncc3)nncc2c1-c1ccccc1F
- Efficacy [1]: 0.03
- Ki [2]: 2.7 nM
- Efficacy [3]: 0.18

SMILES: Cn1ncnc1COc1nn2c(-c3c(F)cc(F)cc3F)nncc2c1-c1ccccc1F
- Efficacy [1]: 0.37
- Ki [2]: 2.6 nM
- Efficacy [3]: 0.59

SMILES: Cn1ncnc1COc1nn2c(-c3ccco3)nncc2c1-c1ccccc1F
- Efficacy [1]: 0.01
- Ki [2]: 0.85 nM
- Efficacy [3]: 0.19

SMILES: Cn1ncnc1COc1nn2c(-c3ccccc3F)nncc2c1-c1cccc(F)c1
- Efficacy [1]: 0.23
- Ki [2]: 0.28 nM
- Efficacy [3]: 0.46

SMILES: Cn1ncnc1COc1nn2c(-c3cccc(F)c3)nncc2c1-c1ccccc1F
- Efficacy [1]: 0.38
- Ki [2]: 1.2 nM
- Efficacy [3]: 0.57

SMILES: Cn1ncnc1COc1nn2c(-c3ccccc3Cl)nncc2c1-c1ccccc1F
- Efficacy [1]: -0.02
- Ki [2]: 21 nM
- Efficacy [3]: 0.02

SMILES: Cn1ncnc1COc1nn2c(-c3ccccc3F)nncc2c1-c1ccsc1
- Activity [4]: 0.54 mg/kg
- bioavailability [5]: 32%
- Efficacy [1]: -0.02
- Ki [2]: 0.1 nM
- Efficacy [3]: 0.21

SMILES: Cn1ncnc1COc1nn2c(-c3ccccc3F)nncc2c1-c1ccccc1F
- Efficacy [1]: 0.22
- Ki [2]: 0.45 nM
- Efficacy [3]: 0.4

SMILES: Cn1ncnc1COc1nn2c(-c3ccoc3)nncc2c1-c1ccccc1F
- Efficacy [1]: 0.07
- Ki [2]: 0.61 nM
- Efficacy [3]: -0.12

SMILES: Cn1ncnc1COc1nn2c(-c3ccccc3F)nncc2c1-c1ccccc1
- Ki [6]: 0.39 nM
- Efficacy [1]: 0.18
- Ki [2]: 0.77 nM
- Efficacy [3]: 0.44

SMILES: Cn1ncnc1COc1nn2c(-c3ccccc3F)nncc2c1-c1cccc(Cl)c1
- Efficacy [1]: 0.35
- Ki [2]: 1.1 nM
- Efficacy [3]: 0.45

SMILES: Cn1ncnc1COc1nn2c(-c3ccccc3F)nncc2c1-c1cccc(C(F)(F)F)c1
- Efficacy [1]: 0.3
- Ki [2]: 0.54 nM
- Efficacy [3]: 0.46

SMILES: Cn1ncnc1COc1nn2c(-c3ccccc3F)nncc2c1-c1c(F)cccc1F
- Efficacy [1]: 0.23
- Ki [2]: 0.55 nM
- Efficacy [3]: 0.45

SMILES: Cn1ncnc1COc1nn2c(-c3ccccc3F)nncc2c1-c1cc(F)ccc1F
- Efficacy [1]: 0.29
- Ki [2]: 0.2 nM
- Efficacy [3]: 0.46

SMILES: Cn1ncnc1COc1nn2c(-c3ccccc3F)nncc2c1-c1ccco1
- Efficacy [1]: -0.09
- Ki [2]: 0.11 nM
- Efficacy [3]: 0.16

SMILES: Cn1ncnc1COc1nn2c(-c3ccccc3F)nncc2c1-c1ccccc1C(F)(F)F
- Ki [2]: > 33 nM

SMILES: Cn1ncnc1COc1nn2c(-c3ccccc3F)nncc2c1-c1cccc(C#N)c1
- Efficacy [1]: 0.35
- Ki [2]: 1.6 nM
- Efficacy [3]: 0.28

SMILES: Cn1ncnc1COc1nn2c(-c3cccnc3)nncc2c1-c1ccccc1F
- Efficacy [1]: 0.15
- Ki [2]: 1.1 nM
- Efficacy [3]: 0.16

SMILES: Cn1ncnc1COc1nn2c(-c3ccc(F)cc3)nncc2c1-c1ccccc1F
- Efficacy [1]: 0.36
- Ki [2]: 0.94 nM
- Efficacy [3]: 0.6

SMILES: Cn1ncnc1COc1nn2c(-c3ccccc3F)nncc2c1-c1cccnc1
- Efficacy [1]: 0.35
- Ki [2]: 0.98 nM
- Efficacy [3]: 0.52

SMILES: Cn1ncnc1COc1nn2c(-c3ccccc3F)nncc2c1-c1ccccn1
- Efficacy [1]: 0.45
- Ki [2]: 1.4 nM
- Efficacy [3]: 0.56

SMILES: Cn1ncnc1COc1nn2c(-c3ccc(F)cc3F)nncc2c1-c1ccccc1F
- Efficacy [1]: 0.42
- Ki [2]: 2 nM
- Efficacy [3]: 0.78

SMILES: Cn1ncnc1COc1nn2c(C3CC3)nncc2c1-c1ccccc1F
- Efficacy [1]: -0.08
- Ki [2]: 0.36 nM
- Efficacy [3]: -0.01

SMILES: Cc1ccccc1-c1c(OCc2ncnn2C)nn2c(-c3ccccc3F)nncc12
- Ki [2]: 23 nM

SMILES: Cn1ncnc1COc1nn2c(-c3c(F)ccc(F)c3F)nncc2c1-c1ccccc1F
- Efficacy [1]: 0.45
- Ki [2]: 2.7 nM
- Efficacy [3]: 0.55

SMILES: Cn1ncnc1COc1nn2c(-c3ccccc3F)nncc2c1-c1ccncc1
- Efficacy [1]: 0.1
- Ki [2]: 0.14 nM
- Efficacy [3]: 0.19

SMILES: Cn1ncnc1COc1nn2c(-c3ccccc3F)nncc2c1-c1ccc(F)cc1
- Efficacy [1]: 0.09
- Ki [2]: 6.3 nM
- Efficacy [3]: 0.31

SMILES: Cn1ncnc1COc1nn2c(-c3ccccc3F)nncc2c1-c1cncnc1
- Ki [2]: > 33 nM

SMILES: Cn1ncnc1COc1nn2c(-c3ccccc3F)nncc2c1-c1cccc(N)c1
- Efficacy [1]: 0.42
- Ki [2]: 14 nM
- Efficacy [3]: 0.38

SMILES: Cn1ncnc1COc1nn2c(-c3ccccc3F)nncc2c1-c1cc(F)cc(F)c1
- Ki [2]: > 33 nM

SMILES: Cn1ncnc1COc1nn2c(-c3ccccc3F)nncc2c1-c1cccc(CO)c1
- Efficacy [1]: 0.5
- Ki [2]: 6.6 nM
- Efficacy [3]: 0.5

SMILES: Cn1ncnc1COc1nn2c(-c3ccccc3F)nncc2c1-c1cccs1
- Efficacy [1]: 0.01
- Ki [2]: 0.1 nM
- Efficacy [3]: 0.12

SMILES: Cn1ncnc1COc1nn2c(-c3cc(F)ccc3F)nncc2c1-c1ccccc1F
- Efficacy [1]: 0.52
- Ki [2]: 1.3 nM
- Efficacy [3]: 0.52
